Experimental data reported in patent US20240390256A1, “A DEODORANT COMPOSITION” (priority 2021, published 2024).

System: S. hominis ATCC 27844
Test: Malodour assay using lead acetate method (H2S formation by S. hominis, 96-well plate)
Format: cell-based
Conditions: for (%) Malodour generated: bacterial control = 100; for % malodour generation as compared to pectin: malodour assay, carbohydrates at 2 wt. %
Protocol: The test organisms was grown on TSA (Tryptic Soya Agar) plates overnight (22±2 hr). The organism was not more than 3 passages removed from the original source. The cell number was adjusted by re-suspending it in a suitable amount of physiological saline sufficient to achieve the required cell number based on optical density of the cells. The optical density (OD at 620 nm) of the cells were standardized to the cell number for the test organism using a spectrophotometer. A minimum final suspension of 1.0×10^8 CFU/mL was achieved by adjusting the OD to 0.2 in saline for the malodour assay. A 1% lead acetate solution was made in distilled water. Whatmann filter paper (cut in the size that could be placed over the wells of a well plate) was dipped in the lead acetate solution. The excess solution was drained and allowed to dry in Laminar Air Flow for 30 minutes. Stock solutions of the actives were prepared for performing the assay. A 0.5% citrus pectin was prepared by weighing 0.05 g of pectin in 10 ml sterile distilled water under magnetic stirrer for 30 min. A 1:10 dilution of this stock was prepared in sterile distilled water to achieve a final stock of 0.05% citrus pectin to perform the assay. A 1% stock of niacinamide was prepared by weighing 0.1 g in 10 ml sterile distilled water. The malodour assay was adapted from the method of Moore et al, 2003 and modified into a 96 well plate format. 100 μl Tryptic Soy Broth (TSB) with 0.1% L-cysteine-HCl was added into the wells of the 96-well plate. 20 μl of 0.2 OD culture of S. hominis was then added into the wells. The actives were added from the stock solutions at required concentrations and made up the volume to 200 μl with addition of sterile distilled water. The assay was done in triplicates. The lead acetate paper was placed over the wells and the lid of the 96-well plate was closed and incubated at 37° C. incubator overnight. After the incubation time, the dark coloration of the lead acetate paper was observed. Visible blackening of lead acetate in the area over the well indicated the presence of H2S. The intensity of the colour was recorded using a reflectometer as L*a*b* values. The difference between the initial and final L*a*b* values ΔE, was used to quantify malodour formation. The percentage malodour was calculated from ΔE measured using the above assay for the various actives or combinations.

[1] = Table 1, active wt % as given per example, S. hominis in TSB with 0.1% L-cysteine-HCl, 37° C. overnight, calculated from ΔE
[2] = Table 2, comparative carbohydrates at 2 wt. %

| Structure (SMILES) | (%) Malodour generated [1] | (%) Malodour generated [2] | % malodour generation as compared to pectin (Table 2) |
| --- | --- | --- | --- |
| NC(=O)c1cccnc1 [C, Niacinamide] | 89% |  |  |
| NC(=O)c1cccnc1 [D, Niacinamide] | 71% |  |  |
| OC[C@H]1O[C@@](CO)(O[C@H]2O[C@H](CO)[C@@H](O)[C@H](O)[C@H]2O)[C@@H](O)[C@@H]1O [F, Sucrose] |  | 100% | higher |
| O=C[C@H](O)[C@@H](O)[C@@H](O)[C@H](O)CO [J, Galactose] |  | 90% | higher |
